According to patent US12642860B2, “Filamentous nanostructures and their use for treatment of pulmonary disease” (THE JOHNS HOPKINS UNIVERSITY, priority 2019, dated 2026):

Columns and labels:
[1] = Jet nebulizer release profile and output; format: physicochemical; details: within KPA filaments 1 mM
Procedure: FIGS. 24A-24F are jet nebulizer release profiles of EPA, OPA, and KPA supramolecular filaments with starting formulation concentrations at (24A) 10 μM, (24B) 100 μM, and (24C) 1000 μM, showing a linear release pattern for each system over the course of a 10 min nebulization event (3 mL solution). Data given represent mean #SD (n=3); dashed lines represent line of best fit from linear regression analysis. (24D) The aerosol output rate (μg/min) of the supramolecular filaments from a jet nebulizer at different formulation concentrations, showing no statistically significant difference (ns) between filaments at the same concentration and output rate scales linearly with increasing concentration. Data are given as mean±SD (p>0.05 amongst filament systems, ****p<0.0001 amongst concentrations, two-way ANOVA, n=3). […]
We next monitored the release pattern of the supramolecular filaments in aerosol droplets from a jet nebulizer device alongside the output rate. First analyzing the blank EPA, OPA, and KPA filaments, 3 mL solutions of the filaments were loaded into a jet nebulizer at varying concentrations and the remaining concentration of PA molecules and fluid weight loss were monitored over the course of a 10 min nebulization event. FIGS. 24A-C represents the measured release profile of the three filament systems at 10 µM, 100 μM, and 1000 μM, respectively. […]

[2] = Loading capacity of drugs/dye within KPA filaments; format: physicochemical; details: encapsulated in KPA filaments, % by mass
Source text: FIGS. 20A-20C show (20A) the molecular structure of the lung disease-relevant drugs and fluorescent dye used in loading within the supramolecular filaments: paclitaxel (PTX, MW=853.92 g/mol), the anticancer drug; coumarin 6 (Cou6, MW=350.44 g/mol), the green fluorescent dye; and budesonide (BUD, MW=430.54 g/mol), the anti-inflammatory glucocorticoid used to treat symptoms of asthma and chronic obstructive pulmonary disease (top). (20B) The encapsulation process of hydrophobic drugs and dyes within supramolecular peptide amphiphile (PA)-based filaments, where dissolution of PA monomers and drug/dye in aqueous solutions results in their self-assembly with the drug/dye loaded within the hydrophobic core (left). The loading capacity of PTX, Cou6, and BUD based on mass (left axis, solid bars) and mole (right axis, checkered bars) percent within KPA supramolecular filaments (right). Data are given as mean±SD (n=5). (20C) Representative transmission electron microscopy (TEM) images of KPA filaments loaded with PTX (i, ii), Cou6 (iii, iv), and BUD (v, vi) before and after nebulization at 500 μM. Diameters are given as mean±SD (n=35).
With better insight into nebulization stability and the mechanism of supramolecular filament breakdown, we next sought to assess whether these systems can successfully carry drugs and dyes within aerosol droplets for potential inhalation-based therapies. […]

CCN(CC)c1ccc2cc(-c3nc4ccccc4s3)c(=O)oc2c1 [Cou6, coumarin 6]
aerosol output rate of encapsulated molecules [1]: comparable but higher than PTX
loading capacity by mass within KPA filaments [2]: 3.7%
